Where two headings read alike, the source gives them in different places.
Assays:
[1] = tested on: (CUG)10 RNA (SEQ ID NO: 3); experiment: SPR binding to immobilized biotinylated RNA; details: (CUG)10; for improvement in affinity relative to compound 1: SPR KD versus filter-binding KD of compound 1
[2] = tested on: HIV-1 FSS RNA (SEQ ID NO: 7); experiment: SPR binding to immobilized biotinylated RNA
Description: SPR binding measurements were performed on a Biacore-X instrument (Biacore, Inc., Uppsala, Sweden) with two flow channels (FC1 and FC2). 5′-Biotinylated-RNA sequences, with a C6 linker separating the biotin label from the RNA (Integrated DNA Technologies Inc.) were immobilized on streptavidin (Rockland Immunochemicals) functionalized carboxylmethyl dextran coated sensor chips (CM5, G.E. Healthcare) using EDC/NHS (Advanced ChemTech) coupling chemistry. Filtered (0.2μ), degassed and autoclaved HBS-N buffer (0.01M Hepes, pH=7.4, 0.15 M NaCl) was employed as sample and as running buffer for all SPR experiments. A typical protocol for an experiment is as follows: A CM5 sensor chip was allowed to equilibrate to room temperature and then docked into the instrument. Following priming with running buffer, FC1 and FC2 were conditioned by manual injection of 20 μL aqueous NaOH (50 mM) at a flow rate of 30 μL/min. This was repeated 3 times followed by a wash command. Next, the carboxyl groups on the sensor chip surface in both flow cells were activated separately by injecting 60 μL of freshly prepared 1:1 mixture of EDC (0.4 M) and NHS (0.1 M) at a 5 μL/min flow rate followed by a wash. […] After washing, the surface was deactivated with 60 μL injection of ethanolamine (1M, pH=8.5) at 5 μL/min. The flow cells were primed, and the streptavidin surface in FC1 alone was blocked with 30 μL of biotin (20 μM in HBS-N) at 5 μL/min. The RNA (200 nM in running buffer, HBS-N) to be immobilized was unfolded by heating above its predicted melting temperature in a heated block for 2 min and then allowed to refold by cooling gradually to room temperature. The RNA was then immobilized in FC2 alone to response units ranging from 200-1000 RU using a 5 μL/min flow rate. Representative sensorgrams for the immobilization procedure is shown in FIGS. 2A-B. Two 20 μL aliquots of NaCl (0.5 M) were injected at a 30 μL/min flow rate to remove non-specifically bound RNA. The level of RNA immobilized was noted when the baseline was stable, usually after repeated buffer injection followed by a “prime” command. Binding measurements were performed by flowing various concentrations of the compounds to be analyzed over the immobilized RNA and recording the reference-subtracted (FC2−FC1) sensorgrams. For kinetic analysis, at least five sensorgrams corresponding to different concentrations of compound (usually ranging from 0.05-1 μM in HBS-N) were obtained using flow rates of either 60 μL/min or 30 μL/min. The experimental sensorgrams were globally fitted to a 1:1 binding equation (Biaevaluation software) to obtain association rates (ka) and dissociation rates ([…]) as well as equilibrium binding constants (KD). To measure the binding stoichiometry (n), the relations in equations (1-3) below were used: […]
where RUmax is the maximum resonance response unit at saturation, RURNA is the amount RU of RNA immobilized, n is the stoichiometry, MWcompound and MWRNA are molecular weights of compound and RNA respectively, and RUeq represents the resonance response at steady-state (equilibrium). The response units at equilibrium were subjected to Scatchard binding plots of (r/Cfree vs. r). […]
SPR and fluorescence titration experiments, performed using the protocol described in Examples 3 and 4 above, except using as the target a highly conserved RNA sequence responsible for regulating the production of the Gag-Pol polyprotein via a −1 ribosomal frameshift, which occurs along a “slippery sequence” in gag-pol mRNA (SEQ ID NO: 7). This “frameshift stimulatory sequence” (or “HIV-1 FSS”) consists of an upper stemloop and a lower stem, separated by a purine bulge in the most common types of HIV (FIG. 19). For the fluorescent titration experiments, the upper stemloop of SEQ ID NO: 7 was employed. Cell uptake and toxicity studies were carried out using human fibroblasts according to Example 5 above.

| SMILES | Residence time (t1/2) for compound binding to RNA [1] [min] | improvement in affinity relative to compound 1 [1] | Off-rates (koff) ([1]; SPR) [s⁻¹] | On-rates (kon) ([1]; SPR) [M⁻¹ s⁻¹] | Kd ([1]; SPR, read-out: apparent KD) [nM] | ka ([1]; Table 7, SPR) | kd ([1]; Table 7, SPR) | Kd ([1]; Table 7, SPR, read-out: KD) [nM] | Residence time (t1/2) for compound binding to RNA [2] [min] | Off-rates (koff) ([2]; SPR) [s⁻¹] | On-rates (kon) ([2]; SPR) [M⁻¹ s⁻¹] | Kd ([2]; SPR, read-out: apparent KD) [nM] |
| --- | --- | --- | --- | --- | --- | --- | --- | --- | --- | --- | --- | --- |
| CCc1nc2cc3ccccc3cc2cc1C(=O)N1CCC[C@H]1C(=O)N[C@@H](C/C=C/C[C@H](NC(=O)[C@@H]1CCCN1C(=O)c1cc2cc3ccccc3cc2nc1CC)C(=O)N[C@@H](CCCCN)C(=O)NCCCN)C(=O)N[C@@H](CCCCN)C(=O)NCCCN [Compound 5] | 4.6762 | roughly 50 fold | 0.00247 | 28400 | 88.2 ± 0.28 | ka = 2.84E+4/M * s | kd = 2.47E−3/s | 88 | 2.939 | – | – | – |
| CCc1nc2cc3ccccc3cc2cc1C(=O)N1CCC[C@H]1C(=O)N[C@@H](C/C=C\C[C@H](NC(=O)[C@@H]1CCCN1C(=O)c1cc2cc3ccccc3cc2nc1CC)C(=O)N[C@@H](CCCCN)C(=O)NCCCN)C(=O)N[C@@H](CCCCN)C(=O)NCCCN [Compound 4] | 9.7882 | roughly 50 fold | 0.00118 | 27800 | 45 ± 3.3 | ka = 2.78E+4/M * s | kd = 1.18E−3/s | 45 | 0.7548 | 0.0153 | 11300 | 1242.5 ± 0.6 |

Reference: patent US20140050778A1, “NUCLEIC ACID BINDING COMPOUNDS, METHODS OF MAKING, AND USE THEREOF” (UNIVERSITY OF ROCHESTER, priority 2010, published 2014)
